Assay results reported in PubChem BioAssay (NCI).
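The compound was tested at five concentrations on cells cultured in 96-well plates, with a 48-hour exposure period. TGI is the concentration that stops growth completely.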

How the values were obtained:
Test in all cases: DTP human tumour cell line panel, 48 h
HCT-116 colon = test system: HCT-116 colon
HL-60(TB) leukemia = test system: HL-60(TB) leukemia
OVCAR-8 ovarian = test system: OVCAR-8 ovarian
KM12 colon = test system: KM12 colon
NCI-H522 lung = test system: NCI-H522 lung
ACHN renal = test system: ACHN renal
SF-539 CNS = test system: SF-539 CNS
SN12C renal = test system: SN12C renal
UACC-62 melanoma = test system: UACC-62 melanoma
SK-OV-3 ovarian = test system: SK-OV-3 ovarian

Row | Compound | TGI (HCT-116 colon) | TGI (HL-60(TB) leukemia) | TGI (OVCAR-8 ovarian) | TGI (KM12 colon) | TGI (NCI-H522 lung) | TGI (ACHN renal) | TGI (SF-539 CNS) | TGI (SN12C renal) | TGI (UACC-62 melanoma) | TGI (SK-OV-3 ovarian)
1 | COC(=O)C[C@H](CCSC)NC(=O)C[C@H](CCSC)NC(=O)C[C@H](CCSC)NC(=O)OC(C)(C)C | > 100 µM | > 100 µM | > 100 µM | > 100 µM | > 100 µM | > 100 µM | 54.1 µM | > 100 µM | 84.3 µM | 40 µM
2 | O=C(O)CCCc1ccc2c(c1)CC1(C2)Cc2ccc(CCCC(=O)O)cc2C1 | > 100 µM | > 100 µM | > 100 µM | > 100 µM | > 100 µM | > 100 µM | > 100 µM | > 100 µM | > 100 µM | > 100 µM
3 | Nc1ccc(-c2nc3ccccc3s2)cc1 | 35.2 µM | 61.6 µM | 17.7 µM | 47.6 µM | 40.1 µM | 31.8 µM | 45.1 µM | 43.5 µM | 38.6 µM | > 100 µM
